ChEMBL document CHEMBL1142452, “Pyrazolidine-3,5-dione derivatives as potent non-steroidal agonists of farnesoid X receptor: virtual screening, synthesis, and biological evaluation” (Bioorg Med Chem Lett, 2008)
pEC50: −log10 of the molar value. Activity calls are given as the source filed them. The rule behind the calls is not given here.

Assays:
[1] = target: T1, Bile acid receptor (Homo sapiens) (UniProt Q96RI1); assay: Agonist activity at FXR assessed as activation by cell based luciferase transactivation assay at less than 5 uM; assay type: functional
T1 sequence (whole entry): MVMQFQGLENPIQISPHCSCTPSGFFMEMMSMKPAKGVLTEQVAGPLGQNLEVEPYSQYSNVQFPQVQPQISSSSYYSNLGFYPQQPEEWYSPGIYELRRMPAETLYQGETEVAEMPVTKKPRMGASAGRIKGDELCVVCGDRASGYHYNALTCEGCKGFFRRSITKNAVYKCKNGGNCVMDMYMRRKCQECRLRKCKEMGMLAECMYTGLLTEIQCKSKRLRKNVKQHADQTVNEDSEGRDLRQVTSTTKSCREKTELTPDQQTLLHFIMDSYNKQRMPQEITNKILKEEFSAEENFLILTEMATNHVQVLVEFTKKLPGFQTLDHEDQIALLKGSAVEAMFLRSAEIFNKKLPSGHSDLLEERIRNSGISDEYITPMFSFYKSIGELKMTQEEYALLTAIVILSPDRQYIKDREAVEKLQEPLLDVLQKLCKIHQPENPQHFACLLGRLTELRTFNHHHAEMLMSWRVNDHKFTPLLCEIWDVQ

[2] = target: T2, Bile acid receptor (Homo sapiens, UniProt Q96RI1); assay: Agonist activity at FXR assessed as activation by cell based luciferase transactivation assay; assay type: functional
T2 sequence (Q96RI1 whole entry): T1 sequence (whole entry)

Activity [1]	pEC50 [2]	SMILES
Active	5.73	Cc1cccc(COc2cccc(/C=C3\C(=O)NN(C(=O)c4ccc(F)cc4)C3=O)c2)c1
Active	5.62	Cc1cccc(COc2cccc(/C=C3\C(=O)NN(C(=O)c4ccncc4)C3=O)c2)c1
	5.21	CCOC(=O)C(=Cc1ccc(OCc2ccccc2)cc1)C(=O)OCC
	5.16	O=C1NN(c2ccccc2)C(=O)/C1=C/c1cccc(OCc2cccc(C(F)(F)F)c2)c1
	5.29	Cc1cccc(COc2cccc(/C=C3\C(=O)NN(c4ccccc4)C3=O)c2)c1
	5.27	Cc1cccc(COc2cccc(/C=C3\C(=O)NN(c4ccccc4[N+](=O)[O-])C3=O)c2)c1
	5.37	O=C1C(=Cc2cccc([N+](=O)[O-])c2)C(=O)N(c2ccccc2)N1c1ccccc1
	5.32	O=C1NN(c2ccccc2)C(=O)/C1=C/c1cccc(OCc2cccc(F)c2)c1
Active	5.20	O=C1C(=Cc2ccc(OCc3ccccc3)cc2)C(=O)N(c2ccccc2)N1c1ccccc1
	5.40	O=C1NN(C(=O)c2ccccc2)C(=O)/C1=C/c1ccc(OCc2ccccc2)cc1
Active	5.69	O=C1NN(c2ccccc2)C(=O)/C1=C/c1cccc(OCc2ccc(C(F)(F)F)cc2)c1
	5.48	O=C1NN(C(=O)c2ccco2)C(=O)/C1=C/c1ccc(OCc2ccccc2)cc1
